Experimental data as given in patent publication US11713297B2, “Crystalline form of N-butyldeoxygalactonojirimycin” (IDORSIA PHARMACEUTICALS LTD, priority 2017, dated 2023).

What was measured:
[1] = Gravimetric vapour sorption (GVS) analysis, hygroscopicity; assay type: physicochemical; conditions: crystalline form 1; 25° C.; mass change between 40% and 80% RH in first adsorption scan; European Pharmacopeia 8.0 classification
Procedure: Gravimetric Vapour Sorption (GVS) Analysis
Measurements were performed on a multi sample instrument SPS-100n (Projekt Messtechnik, Ulm, Germany) operated in stepping mode at 25° C. The sample was allowed to equilibrate at 40% RH before starting a pre-defined humidity program (40-0-95-0-95-40% RH, steps of 5% ΔRH and with a maximal equilibration time of 24 hours per step were applied. About 20 to 30 mg of each sample was used. The hygroscopic classification is done according to the European Pharmacopeia 8.0, e.g., slightly hygroscopic: increase in mass is less than 2% and equal to or greater than 0.2% mass/mass; hygroscopic: increase in mass is less than 15% and equal to or greater than 2% mass/mass. The mass change between 40% relative humidity and 80% relative humidity in the first adsorption scan is considered.

[2] = tested on: plasma levels of metabolic substrates; assay: Phase Ib study in patients suffering from Fabry disease; assay type: in vivo; conditions: on top of enzyme replacement therapy
[3] = Thermogravimetric analysis (TGA); assay type: physicochemical; conditions: crystalline form 1; in the range 31.5 to 140° C.
Procedure: Thermogravimetric Analysis (TGA)
TGA data were collected on a Mettler Toledo STARe System (TGA851e module and STAR software version 9.20) equipped with a 34-position auto-sampler. Typically, about 5 mg of a sample, in an automatically pierced aluminium pan, was heated at 10° C. min^−1, unless stated otherwise, from 30° C. to 250° C. A nitrogen purge at 10 ml min^−1 was maintained over the sample.

[4] = Particle size distribution (PSD) by laser diffraction, wet dispersion; assay type: physicochemical; conditions: crystalline form 1; average of at least five crystallization batches, each measured in triplicate
Source text: Particle size distributions are defined herein as D10, D50 and D90. D10, D50 and D90 represent the particle diameter corresponding to the respective percentage in volume (i.e. 10%, 50%, 90%) of a given sample which is below the indicated diameter. For example, a D50 from about 70 μm to about 150 μm means that 50% of the volume of a given sample has a diameter which is equal or below a diameter that is in the range between about 70 μm and about 150 μm. Particle size distributions may be determined using standard procedures such as laser diffraction.
Particle Size Distribution (PSD)
PSD measurements were performed by laser-diffraction using a wet dispersion method. Data were collected on a Mastersizer 2000 (Malvern) equipped with a dispersion unit Hydro 2000S in the size range from 0.020 μm to 2000.000 μm. Typically, about 100 mg sample in about 20 ml Tegiloxan 3 (silicon oil, CAS Nr. 9016-00-6) is dispersed in an ultrasonic bad for about 30 s and subsequently added to a prefilled with Tegiloxan 3 dispersion unit until obscuration of about 10% to about 30% is achieved. After a circulation time of 5 min, a sample measurement is performed. Reported particle size values (D10, D50 and D90) represent an average value of 3 measurements.
Particle size measurements of COMPOUND in crystalline form 1 as obtained in Examples 1, 2 and Reference Example 3 are performed using the method described herein. Each data point in Table 3 represents an average value obtained from at least five separate crystallization batches, each measured in triplicate.

SMILES	Hygroscopicity [1]	plasma levels of metabolic substrates thought to be related to the development of the disease [2]	TGA mass loss [3]	D10 [4] [μm]	D50 [4] [μm]	D90 [4] [μm]
CCCCN1C[C@H](O)[C@@H](O)[C@@H](O)[C@H]1CO [COMPOUND, (2R,3S,4R,5S)-1-butyl-2-(hydroxymethyl)piperidine-3,4,5-triol]	Not hygroscopic	marked decrease	Mass loss of <0.1% in the range	–	–	–
CCCCN1C[C@H](O)[C@@H](O)[C@@H](O)[C@H]1CO [Example 2, (2R,3S,4R,5S)-1-butyl-2-(hydroxymethyl)piperidine-3,4,5-triol]	–	–	–	7	57	138
CCCCN1C[C@H](O)[C@@H](O)[C@@H](O)[C@H]1CO [Reference Example 3, (2R,3S,4R,5S)-1-butyl-2-(hydroxymethyl)piperidine-3,4,5-triol]	–	–	–	7	22	42
